Measured values as given in BindingDB's records for doi:10.1016/S0960-894X(01)80156-6 (1994).
Where a SMILES comes first, the peptide text is derived from it. Bridges are numbered along the chain shown (N, C = ends). [ ]: non-standard residue; d: D form. Aoc = NCCCCCCCC(=O)O; Ava = NCCCCC(=O)O

The molecules below were run against Endothelin A receptor (Oryctolagus cuniculus) (assay: Binding affinity against Endothelin A receptor in rabbit renal artery vascular smooth muscle membrane (ET-A)).

SMILES | IC50
CC[C@H](C)[C@H](NC(=O)[C@H](CC(=O)O)NC(=O)[C@H](CC(C)C)NC(=O)[C@H](Cc1c[nH]cn1)NC(=O)[C@@H]1CSSC[C@H](N)C(=O)N[C@@H](CO)C(=O)N[C@@H](C(C)C)C(=O)N[C@@H](Cc2ccc(O)cc2)C(=O)N[C@@H](Cc2ccccc2)C(=O)N1)C(=O)N[C@H](C(=O)N[C@@H](Cc1c[nH]c2ccccc12)C(=O)O)[C@@H](C)CC [Trp-Ile-Ile-Asp-Leu-Hisc(Cys-Ser-Val-Tyr-Phe-Cys)] (H-CSVYFCHLDIIW-OH; disulfide 1-6) | 3800 nM
CC[C@H](C)[C@H](NC(=O)[C@H](CC(=O)O)NC(=O)[C@H](CC(C)C)NC(=O)[C@H](Cc1cnc[nH]1)NC(=O)[C@@H]1CSSC[C@H](N)C(=O)N[C@@H](CO)C(=O)NCCCCCCCC(=O)N[C@@H](C(C)C)C(=O)N[C@@H](Cc2ccc(O)cc2)C(=O)N[C@@H](Cc2ccccc2)C(=O)N1)C(=O)N[C@H](C(=O)N[C@@H](Cc1c[nH]c2ccccc12)C(=O)O)[C@@H](C)CC [Trp-Ile-Ile-Asp-Leu-Hisc(Cys-Ser-Aoa-Val-Tyr-Phe-Cys)] (H-CS[Aoc]VYFCHLDIIW-OH; disulfide 1-7) | 1800 nM
CC[C@H](C)[C@H](NC(=O)[C@H](CC(=O)O)NC(=O)[C@H](CC(C)C)NC(=O)[C@H](Cc1c[nH]cn1)NC(=O)[C@@H]1CSSC[C@H](N)C(=O)N[C@@H](CO)C(=O)N[C@@H](CO)C(=O)N[C@@H](C(C)C)C(=O)N[C@@H](Cc2ccc(O)cc2)C(=O)N[C@@H](Cc2ccccc2)C(=O)N1)C(=O)N[C@H](C(=O)N[C@@H](Cc1c[nH]c2ccccc12)C(=O)O)[C@@H](C)CC [Trp-Ile-Ile-Asp-Leu-Hisc(Cys-Ser-Ser-Val-Tyr-Phe-Cys)] (H-CSSVYFCHLDIIW-OH; disulfide 1-7) | 2000 nM
CC[C@H](C)[C@H](NC(=O)[C@H](CC(=O)O)NC(=O)[C@H](CC(C)C)NC(=O)[C@H](Cc1c[nH]cn1)NC(=O)[C@@H]1CSSC[C@H](N)C(=O)N[C@@H](CO)C(=O)NCCCCC(=O)N[C@@H](C(C)C)C(=O)N[C@@H](Cc2ccc(O)cc2)C(=O)N[C@@H](Cc2ccccc2)C(=O)N1)C(=O)N[C@H](C(=O)N[C@@H](Cc1c[nH]c2ccccc12)C(=O)O)[C@@H](C)CC [Trp-Ile-Ile-Asp-Leu-Hisc(Cys-Ser-Apa-Val-Tyr-Phe-Cys)] (H-CS[Ava]VYFCHLDIIW-OH; disulfide 1-7) | 2500 nM
